These results are taken from US20230250096A1, “SUBSTITUTED PHENYL-1H-PYRROLO[2,3-c] PYRIDINE DERIVATIVES” (Janssen Pharmaceutica NV, priority 2021, published 2023).

Test [1] has as its target T1, menin/MLL (terbium chelate-labeled menin, FITC-MBM1 peptide) (Homo sapiens, UniProt O00255, T541A).
T1 construct: Menin (a.a 1-610-6xhis tag, 2.3 mg/mL in 20 mM Hepes)
T1 sequence (O00255 with tags, fused parts or gaps T541A): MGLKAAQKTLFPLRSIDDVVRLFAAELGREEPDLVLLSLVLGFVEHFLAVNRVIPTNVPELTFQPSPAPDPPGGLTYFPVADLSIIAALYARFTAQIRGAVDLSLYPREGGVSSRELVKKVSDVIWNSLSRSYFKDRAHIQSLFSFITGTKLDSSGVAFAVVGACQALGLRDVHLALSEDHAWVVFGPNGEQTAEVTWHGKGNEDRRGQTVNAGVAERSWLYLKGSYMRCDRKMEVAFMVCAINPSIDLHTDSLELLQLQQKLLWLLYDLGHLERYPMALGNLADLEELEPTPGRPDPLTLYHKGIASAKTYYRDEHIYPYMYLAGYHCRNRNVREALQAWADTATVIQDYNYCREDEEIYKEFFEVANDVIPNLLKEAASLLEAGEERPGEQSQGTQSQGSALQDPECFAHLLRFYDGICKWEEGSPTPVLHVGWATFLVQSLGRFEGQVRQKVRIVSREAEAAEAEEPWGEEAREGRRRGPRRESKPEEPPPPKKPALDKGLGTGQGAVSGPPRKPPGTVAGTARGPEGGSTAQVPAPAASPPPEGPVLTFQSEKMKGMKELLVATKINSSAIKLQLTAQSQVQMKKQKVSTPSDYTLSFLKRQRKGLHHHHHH
Kind of test: Menin/MLL homogenous time-resolved fluorescence (HTRF) assay. The test is classed as binding. The conditions noted are these: 30 min incubation. An outline of the steps: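 Terbium-labeled menin (a.a. 1-610, His-tagged; […]) pre-incubated 30 min with compound, then 75 nM FITC-MBM1 peptide added for 15 min at ambient temperature in Tris pH 7.5 buffer, 0.5% DMSO. HTRF 520/490 nm ratio read; IC50 from 11-point four-fold titrations, typically from 10 μM.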

The next test deals with MEIS1 mRNA expression. Kind of test: MEIS1 mRNA expression assay (Quantigene Singleplex) in MOLM14 cells. The test is classed as cell-based, human. The conditions noted are these: 48 hours incubation. An outline of the steps:
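MOLM14 cells, 3,750/well, exposed to increasing compound concentrations for 48 h. MEIS1 mRNA measured by QuantiGene Singleplex branched-DNA hybridization (lysis 45 min, hybridization 18–22 h, both 55 °C), normalized to RPL28. IC50 fitted to background-corrected fold change versus DMSO.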

By IC50 is commonly meant the concentration at which inhibition is half-maximal. A high value points to lower potency. `CC(=O)N1CCN(CCCC(C(C)C)N2CC[C@@H](Cc3cn(-c4ccc(F)cc4C(=O)N(C)C(C)C)c4cncc(C)c34)C2)CC1` (mixture of isomers) [Compound 8]: the IC50 in test [1] was 0.365 nM; in the test on MEIS1 mRNA expression (Homo sapiens, MOLM-14, 48 h), 23 nM.

On to `CC(=O)N1CCN(CCCC(C(C)C)N2CC[C@H](Cc3cn(-c4ccc(F)cc4C(=O)N(C)C(C)C)c4cncc(C)c34)C2)CC1` (mixture of isomers) [Compound 9], for which the half-maximal inhibitory concentration (IC50) in test [1] was 0.138 nM; with MEIS1 mRNA expression (Homo sapiens, MOLM-14, 48 h), 23 nM.

On to `CC(=O)N1C[C@@H]2CN([C@H]3C[C@@H](C(C(C)C)N4CC[C@H](Cc5cn(-c6ccc(F)cc6C(=O)N(C)C(C)C)c6cncc(C)c56)C4)C3)C[C@H]2C1` (mixture of isomers) [Compound 21], for which the IC50 is 0.052 nM in test [1] and less than 2.3 nM with MEIS1 mRNA expression (Homo sapiens, MOLM-14, 48 h).

As for `CCC([C@H]1C[C@@H](N2CCN(C(C)=O)CC2)C1)N1CC[C@@H](Cc2cn(-c3ccc(F)cc3C(=O)N(C)C(C)C)c3cncc(C)c23)C1` (mixture of isomers) [Compound 24], the 50% inhibitory concentration (IC50) in test [1] amounted to 0.057 nM; in the test with MEIS1 mRNA expression (Homo sapiens, MOLM-14, 48 h) it was 71 nM.

Consider `Cc1cncc2c1c(C[C@@H]1CCN(CC3CCOCC3)C1)cn2-c1ccc(F)cc1S(=N)(=O)C(C)C` (mixture of isomers) [Compound 78], for which the concentration for half-maximal inhibition (IC50) in test [1] was 0.299 nM; with MEIS1 mRNA expression (Homo sapiens, MOLM-14, 48 h) it was 327 nM.

In the case of `Cc1cncc2c1c(C[C@@H]1CCN(CC3CCNC(=O)CC3)C1)cn2-c1ccc(F)cc1C(=O)N(C)C(C)C` (mixture of isomers) [Compound 169], the IC50 in test [1] came to 0.061 nM; with MEIS1 mRNA expression (Homo sapiens, MOLM-14, 48 h), 71 nM.

`Cc1cncc2c1c(C[C@@H]1CCN(CC3CCNC(=O)C3)C1)cn2-c1ccc(F)cc1C(=O)N(C)C(C)C` (mixture of isomers) [Compound 212]: the IC50 in test [1] was found to be 0.115 nM; in the test with MEIS1 mRNA expression (Homo sapiens, MOLM-14, 48 h) it was 322 nM.

`COCCN(C)CCCC(C(C)C)N1CC[C@H](Cc2cn(-c3ccc(F)cc3C(=O)N(C)C(C)C)c3cncc(C)c23)C1` (single isomer, unassigned) [Compound 2]: the half-inhibitory concentration (IC50) in test [1] is 0.049 nM; in the test with MEIS1 mRNA expression (Homo sapiens, MOLM-14, 48 h) it was 3 nM.

In the case of `COCCN(C)CCC[C@H](C(C)C)N1CC[C@H](Cc2cn(-c3ccc(F)cc3C(=O)N(C)C(C)C)c3cncc(Cl)c23)C1` (single isomer, unassigned) [Compound 4a], the IC50 in test [1] is 0.301 nM; in the test on MEIS1 mRNA expression (Homo sapiens, MOLM-14, 48 h) it was 247 nM.

As for `COCCN(C)CCC[C@@H](C(C)C)N1CC[C@H](Cc2cn(-c3ccc(F)cc3C(=O)N(C)C(C)C)c3cncc(Cl)c23)C1` (single isomer, unassigned) [Compound 4b], the half-maximal inhibitory concentration (IC50) stood at 0.094 nM in test [1] and 6 nM in the test on MEIS1 mRNA expression (Homo sapiens, MOLM-14, 48 h).

Regarding `CC(=O)N1CCN(CCCC(C(C)C)N2CCC(Cc3cn(-c4ccc(F)cc4C(=O)N(C)C(C)C)c4cncc(C)c34)C2)CC1` (single isomer, unassigned) [Compound 9a], the half-inhibitory concentration (IC50) in test [1] worked out at 0.016 nM; in the test with MEIS1 mRNA expression (Homo sapiens, MOLM-14, 48 h), 6 nM.

`CC(=O)N1C[C@@H]2CN(CCC[C@H](C(C)C)N3CC[C@H](Cc4cn(-c5ccc(F)cc5C(=O)N(C)C(C)C)c5cncc(Cl)c45)C3)C[C@H]2C1` (single isomer, unassigned) [Compound 19a]: the half-maximal inhibitory concentration (IC50) is 0.032 nM in test [1] and less than 3.3 nM in the test on MEIS1 mRNA expression (Homo sapiens, MOLM-14, 48 h).

Regarding `CN=S(=O)(c1cc(F)ccc1-n1cc(CC2CCN(CC3CCOCC3)C2)c2c(C)cncc21)C(C)C` (single isomer, unassigned) [Compound 77b], the IC50 in test [1] was 0.07 nM; with MEIS1 mRNA expression it was 132 nM.

Regarding `CN=S(=O)(c1cc(F)ccc1-n1cc(CC2CCN(CC3CCOCC3)C2)c2c(C)cncc21)C(C)C` (single isomer, unassigned) [Compound 77d], the concentration for half-maximal inhibition (IC50) in test [1] is 0.208 nM; in the test with MEIS1 mRNA expression it was roughly 260 nM.

In the case of `CC(=O)N1CCC(N2CC[C@H](Cc3cn(-c4ccc(F)cc4C(=O)N(C)C(C)C)c4cncc(C)c34)C2)CC1` (single isomer, unassigned) [Compound 81], the IC50 in test [1] came out at 0.425 nM; in the test with MEIS1 mRNA expression, 77 nM.

On to `Cc1cncc2c1c(CC1CCN(CC3CCN(C(=O)[C@@H](C)O)CC3)C1)cn2-c1ccc(F)cc1C(=O)N(C)C(C)C` (single isomer, unassigned) [Compound 85], for which the IC50 in test [1] came to 0.113 nM; in the test with MEIS1 mRNA expression (Homo sapiens, MOLM-14, 48 h) it was 22 nM.

Consider `Cc1cncc2c1c(CC1CCN(CC3CCN(C(=O)[C@H](C)O)CC3)C1)cn2-c1ccc(F)cc1C(=O)N(C)C(C)C` (single isomer, unassigned) [Compound 86], for which the concentration for half-maximal inhibition (IC50) in test [1] amounted to 0.042 nM; in the test with MEIS1 mRNA expression (Homo sapiens, MOLM-14, 48 h) it was 21 nM.

Consider `CC(=O)N1CCC(C(C)N2CCC(Cc3cn(-c4ccc(F)cc4C(=O)N(C)C(C)C)c4cncc(C)c34)C2)CC1` (single isomer, unassigned) [Compound 116a], for which the IC50 turned out to be 0.075 nM in test [1] and 5 nM in the test on MEIS1 mRNA expression (Homo sapiens, MOLM-14, 48 h).

`Cc1cncc2c1c(CC1CCN(CC3CCN(C(=O)C(C)(C)O)CC3)C1)cn2-c1ccc(F)cc1C(=O)N(C)C(C)C` (single isomer, unassigned) [Compound 125]: the concentration for half-maximal inhibition (IC50) in test [1] is 0.027 nM; with MEIS1 mRNA expression (Homo sapiens, MOLM-14, 48 h) it was 16 nM.

Take `CN=[S@](=O)(c1cc(F)ccc1-n1cc(C[C@@H]2CCN(CC3CCN(C(C)=O)CC3)C2)c2c(C)cncc21)C(C)C` (single isomer, unassigned) [Compound 128a]: the IC50 came to 0.151 nM in test [1] and 258 nM with MEIS1 mRNA expression (Homo sapiens, MOLM-14, 48 h).

On to `COCC(=O)N1CCC(CN2CC[C@@H](Cc3cn(-c4ccc(F)cc4C(=O)N(C)C(C)C)c4cncc(C)c34)C2)CC1` (single isomer, unassigned) [Compound 136], for which the IC50 in test [1] was roughly 0.094 nM; with MEIS1 mRNA expression (Homo sapiens, MOLM-14, 48 h), 71 nM.

Consider `CC(=O)N1CCC(N2CC[C@H](Cc3cn(-c4ccc(F)cc4C(=O)N(C)C(C)C)c4cncc(C)c34)C2)C(C)C1` (single isomer, unassigned) [Compound 137a], for which the half-maximal inhibitory concentration (IC50) in test [1] was 0.063 nM; in the test on MEIS1 mRNA expression it was 14 nM.

Consider `CNC(=O)[C@H]1CC[C@H](CN2CC([C@H](C)c3cn(-c4ccc(F)cc4C(=O)N(C)C(C)C)c4cncc(C)c34)C2)CC1` (single isomer, unassigned) [Compound 164b], for which the IC50 in test [1] amounted to 0.025 nM; in the test on MEIS1 mRNA expression (Homo sapiens, MOLM-14, 48 h), 17 nM.

As to `COC[C@H](C1CCCCO1)N1CC[C@@H](Cc2cn(-c3ccc(F)cc3C(=O)N(C)C(C)C)c3cncc(C)c23)C1` (single isomer, unassigned) [Compound 165b], the IC50 in test [1] was found to be 0.07 nM; with MEIS1 mRNA expression (Homo sapiens, MOLM-14, 48 h) it was 38 nM.

With `Cc1cncc2c1c(C[C@@H]1CCN([C@H](C)C3CCOCC3)C1)cn2-c1ccc(F)cc1[S@](=N)(=O)C(C)C` (single isomer, unassigned) [Compound 180a], the IC50 in test [1] is 0.143 nM; with MEIS1 mRNA expression (Homo sapiens, MOLM-14, 48 h), 117 nM.

Take `Cc1cncc2c1c(C[C@H]1CCN([C@H](C)C3CCOCC3)C1)cn2-c1ccc(F)cc1[S@](=N)(=O)C(C)C` (single isomer, unassigned) [Compound 181a]: the IC50 in test [1] came to 0.066 nM; in the test with MEIS1 mRNA expression (Homo sapiens, MOLM-14, 48 h), 111 nM.

In the case of `Cc1cncc2c1c(CC1CCN(CC3CCC(=O)N(C)CC3)C1)cn2-c1ccc(F)cc1C(=O)N(C)C(C)C` (single isomer, unassigned) [Compound 184a], the IC50 in test [1] was 0.041 nM; with MEIS1 mRNA expression, 23 nM.

As to `Cc1cncc2c1c(CC1CCN(CC3CCC(=O)N(C)CC3)C1)cn2-c1ccc(F)cc1C(=O)N(C)C(C)C` (single isomer, unassigned) [Compound 184b], the half-maximal inhibitory concentration (IC50) in test [1] came to 0.065 nM; in the test with MEIS1 mRNA expression, 115 nM.
